Experimental data taken from patent US20220370553A1, “PREBIOTIC-INDUCED ANTI-TUMOR IMMUNITY” (Sanford Burnham Prebys Medical Discovery Institute, priority 2019, published 2022).

Assays:
[1] = tested on: N-Ras mutant melanoma tumor cells (MaNRAS1); assay: Growth of N-Ras mutant melanoma tumors with prebiotics with or without MEKi; type: in vivo, C57BL/6 mice
Protocol: FIG. 7A C57BL/6 mice were injected (s.c.) with NRAS^Q61K mouse melanoma cells (1×10^6) (n=10). The mice were administered with either a control diet alone, or one supplemented with mucin (3%) in drinking water or inulin (15%) in chow starting 14 days prior to tumor inoculation. When tumors reached a volume of 10-20 mm^2, mice were treated with MEKi (PD325901) administered by gavage (10 mg/kg, daily), alone or in combination with inulin or mucin, as indicated. Tumor volume was assessed every 4 days. […] Data are representative of two independent experiments. Graphs show the mean±s.e.m. *P<0.05, **P<0.005, ***P<0.001, ****P<0.0001 by two-way ANOVA with Tukey's correction (A) or one-way ANOVA with Tukey's correction (B-D).
Animals and tumor models. […] Male 6-8-week-old mice were used for all experiments. […] All mice were fed an autoclaved chow diet ad libitum (LabDiet 5K67, Purina Foods). […] Mouse selection for experiments was not formally randomized or blinded. For tumor growth experiments, mice were injected subcutaneously (s.c.) with 1×10^6 tumor cells. Tumor size was measured twice a week for calculation of tumor volume. Tumors were weighed at the time of excision.
Mucin and inulin treatment. For mucin treatment, C57BL/6 mice were subjected to control or water supplemented with 3% mucin (Lee Biosolutions) prior to (14 days) and during tumor inoculation. Water was changed every other day. For inulin treatment, mice were received a diet (TD. 94048, AIN-93M, Purified Diet, ENVIGO) enriched with long-chain inulin by substituting all of sucrose and 5% of corn starch in the control diet or a modified diet (TD. 160256, Modified AIN-93M, Diet w 15% inulin, ENVIGO) prior to (14 days) and during tumor inoculation. Diets were changed 2 times a week.
Experiments were conducted to determine whether prebiotics impacted the effectiveness of MEK inhibitor (MEKi) treatment on tumor growth control and treatment resistance.

[2] = tested on: MC-38 mouse colorectal cancer cells; assay: Growth of MC-38 colorectal cancer tumors in prebiotic-fed mice; type: in vivo, C57BL/6 mice; conditions: 3% mucin in drinking water or 15% inulin diet from two weeks prior to inoculation
Excerpt: (§1) MC-38 mouse colorectal cancer cells (1×10^6) were inoculated, and diets were continued after inoculation.

[3] = tested on: Bifidobacterium spp.; assay: Anaerobic fecal cultures with 1% prebiotic, 16S rDNA quantification; type: cell-based, human; conditions: in two of these cultures
Protocol: (§2) Fecal samples derived from 12 healthy human subjects were cultivated in the presence or absence of 1% prebiotic. 16S rDNA sequences corresponding to Bifidobacterium, Bacteroides and Akkermansia muciniphila were quantified. Data are representative of three independent experiments. Graphs show the mean±s.e.m. *P<0.05, **P<0.005, ***P<0.001, ****P<0.0001 by one-way ANOVA with Tukey's correction.
(§3) Anaerobic fecal cultures. […] Anaerobic cultures (9% H2, 81% N2) were grown statically for 3-4 days at 37° C. and grown to approximate saturation.
(§4) Chemically-defined medium (CDM). CDM contains 50 mM HEPES, 2.2 mM KH2PO4, 10 mM Na2HPO4, 60 mM NaHCO3, 4 mM of each amino acid, except leucine (15 mM), 10 mL ATCC, Trace Mineral Supplement. CDM contained nucleoside bases (100 mg/L), inosine, xanthine, adenine, guanine, cytosine, thymidine and uracil (400 mg/L). CDM contained choline (100 mg/L), ascorbic acid (500 mg/L), lipoic acid (2 mg/L), hemin (1.2 mg/L) and myo-inositol (400 mg/L). Resazurin (1 mg/L) was added to visually monitor dissolved oxygen. The pH of the media was adjusted to 7.4.
(§5) Fecal samples derived from 12 healthy, vegetarian human subjects were cultivated in a chemically-defined medium the presence or absence of 1% prebiotic. Anaerobic cultures (9% H2, 81% N2) were grown statically for 3-4 days at 37° C. and grown to approximate saturation.

[4] = tested on: Yumm1.5 tumors; assay: Growth of Yumm1.5 melanoma tumors in prebiotic-fed mice; type: in vivo, C57BL/6 mice; conditions: mucin 3% in drinking water or inulin 15% w/w chow from 2 weeks prior to inoculation of 1×10^6 Yumm1.5 cells
Excerpt: (§6) FIG. 2B, Quantification of tumor-infiltrating effector (CD44hi) CD4+, CD8+ and CD45+ T cells from mice treated as in FIG. 2A (n=10). FIG. 2C, Quantification of tumor-infiltrating, IFN-g-producing CD4+ T cells from mice treated as in FIG. 2A (n=10). FIG. 2D, Quantification of tumor-infiltrating total DCs and subsets in mice treated as in FIG. 2A (n=10). FIG. 2E, MFI of MHC class I and MHC class II on DCs from the tumors of mice treated as in FIG. 2A (n=10). […] Graphs show the mean s.e.m. *P<0.05, **P<0.005, ***P<0.001,****P<0.0001 by two-way ANOVA with Tukey's correction (A) and by one-way ANOVA with Tukey's correction (B-E).

[5] = tested on: Bacteroides spp.; assay: Anaerobic fecal cultures with 1% prebiotic, 16S rDNA quantification; type: cell-based; conditions: fecal cultures of 12 healthy human subjects, 3-4 days at 37° C.
Protocol: as §2, §3, §4, §5

[6] = tested on: gut microbiota; type: in vivo, C57BL/6 mice
Protocol: Bacterial DNA extraction and 16S library preparation. […] Mouse fecal pellets were frozen on dry ice, and stored at −80° C. Bacterial DNA was extracted using the QIAmp Fast DNA Stool Mini Kit (Qiagen). To ensure efficient cell lysis, a 5-min bead-beating step using a Mini-Beadbeater-16 was included (Biospec Products, OK, USA). Library preparation for the Illumina MiSeq platform was performed by amplification of the V3-V4 region of the bacterial 16S ribosomal DNA gene using
C. Adapter and barcode sequences for dual indices were used as described by Illumina. PCR clean up steps were performed with QIAquick 96-PCR Clean up kit (Qiagen, Germany), and library quantification was performed using a KAPA Library Quantification Kit for Illumina platforms (KAPA Biosystems, MA, USA). An Experion Automated Gel Electrophoresis System (Bio-Rad, CA, USA) was used to measure the DNA concentration and purity of the pooled libraries. The 16S libraries were sequenced at Novagene (Beijing, China) and the SBP sequencing Core.
16S sequencing data processing. The original FASTQ files from Illumina 250 basepair paired-end sequencing of the samples were processed using a novel 16S amplicon sequencing pipeline HiMap (http://github.com/taolonglab/himap; BioRxiv 565572). The output of HiMap is Operational Strain Unit (OSU) which contains one or more bacterial strains that best match the 16S sequence and cannot be further distinguished. The percentage similarity between the 16S sequence and the aligned region of 16S rRNA genes of the strains in the OSU is indicated. OSUs mapped to the same strains are grouped together (adding read counts) if percentage similarities are within 3%. Read counts are converted into relative abundance as described in HiMap. Log 10-transformed relative abundances were used for comparisons between samples under different experimental conditions.

[7] = tested on: intestinal epithelial cells; assay: qRT-PCR of inflammatory mediators in intestinal epithelial cells in vivo; set-up: species or system C57BL/6 mice; conditions: inulin 15% in chow, naïve mice, 2 weeks
Excerpt: FIG. 15 illustrates effects of mucin and inulin on expression of inflammatory mediators by intestinal epithelial cells in vivo. qRT-PCR data are shown for mRNA levels of the indicated inflammatory mediators in intestinal epithelial cells from mucin or inulin-treated mice (n=4). Data are representative of two independent experiments. Graphs show the mean s.e.m. *P<0.05, **P<0.005, one-way ANOVA with Tukey's correction.
Isolation of intestinal epithelial cells. A 10 cm section of mouse small intestine was opened longitudinally, minced, washed in 150 mM NaCl containing 1 mM DTT, and then resuspended in dissociation buffer (130 mM NaCl, 10 mM EDTA, 10 mM Hepes [pH 7.4], 10% FCS, and 1 mM DTT). The sections were incubated at 37° C. for 30 min with vigorous shaking to release the epithelial cells from the lamina propria. The epithelial cell suspension was then carefully aspirated, centrifuged, and washed in ice-cold PBS.
The effect of mucin and inulin on intestinal epithelial cells was evaluated in vivo. To this end, mucin (3% in drinking water) or inulin (15% in chow) were administered to naïve C57BL/6 mice for 2 weeks. Intestinal epithelial cells were isolated from small intestine and were assessed for the level of select cytokines and chemokines that are implicated in the activation of the immune response and anti-tumor immunity.

[8] = tested on: Yumm1.5 tumors; assay: Flow cytometry of tumor-infiltrating immune cells in Yumm1.5 tumors; type: in vivo, C57BL/6 mice; conditions: 20 days following tumor inoculation
Excerpt: as §6
(§7) Tumor digestion. Tumors were excised, minced, and digested with 1 mg/ml collagenase D (Roche) and 100 μg/ml DNase I (Sigma) at 37° C. for 1 h. Digests were then passed through a 70-μm cell strainer to generate a single-cell suspension. The cells were washed twice with PBS containing 2 mM EDTA, and then stained for flow cytometry.
(§8) Flow cytometry. Tumor-derived single-cell suspensions were washed twice with FACS staining buffer, fixed for 15 min with 1% formaldehyde in PBS, washed twice, and resuspended in FACS staining buffer. For intracellular cytokine staining, cells were resuspended in complete RPMI-1640 (containing 10 mM HEPES, 1% non-essential amino acids and L-glutamine, 1 mM sodium pyruvate, 10% heat-inactivated fetal bovine serum (FBS), and antibiotics) supplemented with 50 U/mL IL-2 (NCI), […] brefeldin A (BFA, Sigma), and incubated with phorbol myristate acetate (10 ng/ml) and ionomycin (0.5 μg/ml) at 37° C. The cells were then fixed and permeabilized using a Cytofix/Cytoperm Kit (BD Biosciences) before staining. Antibodies to the following proteins were used: CD45.2 (104), CD8a (53-6.7), CD4 (GK1.5), CD44 (IM7), TNF-α (MP6-XT22), IFN-γ (XMG1.2), CD11c (N418), CD11b (M1/70), MHC class II (M5/114.15.2), PDCA (129c1), and B220 (RA3-6B2) from BioLegend, and antibodies to IL-2 (JES6-5H4) and MHC class I (AF6-88.5.5.3) from eBioscience. All data were collected on an LSRFortessa (BD Biosciences) and analyzed using FlowJo Software (Tree Star).

[9] = tested on: MC-38 mouse colorectal cancer cells; assay: Flow cytometry of tumor-infiltrating immune cells in MC-38 tumors; type: in vivo, C57BL/6 mice
Protocol: as §7, §8, §1

[10] = tested on: CD8+ T cells; assay: qRT-PCR of cytokine and chemokine mRNAs in CD8+ T cells in vitro; type: cell-based, mice; conditions: 0.05 or 0.5 mg/ml in vitro
Excerpt: Data are representative of two independent experiments. Graphs show the mean±s.e.m. *P<0.05, **P<0.005, ***P<0.001, ****P<0.0001 one-way ANOVA with Tukey's correction.
RNA extraction and qRT-PCR analyses. Total RNA was extracted from tumor samples individually using the RNeasy Fibrous Tissue Midi kit (QIAGEN) or cells treated as indicated using High Capacity Reverse Transcriptase kits (Invitrogen) according to the manufacturer's protocol. Purity and concentration of extracted RNA were checked and quantified by reading at 260 and 280 nm in a NanoDrop spectrophotometer (Thermo Fisher). The qRT-PCR analyses were performed using Syber Green RT-PCR kits (Invitrogen) on a Bio-Rad CFX Connect Real-Time system. Expression levels normalized to 18S or Tubb5 controls.

O=C(NOC[C@H](O)CO)c1ccc(F)c(F)c1Nc1ccc(I)cc1F [MEKi, PD325901, reference compound]
N-Ras mutant tumor growth ([1]; MEKi (PD325901) 10 mg/kg daily by gavage, alone or with prebiotic): effectively controlled tumor growth

inulin
growth of colon cancer MC-38 tumors [2]: attenuated | Bifidobacterium spp. [3]: strong increase | control of N-Ras mutant tumors ([1]; in the absence of MEKi, mucin 3% in water or inulin 15% in chow): modestly controlled | intrinsic resistance of MaN-Ras melanoma cells to MEKi ([1]; inulin-fed mice treated with MEKi): delayed | melanoma tumor growth [4]: attenuated | relative abundance of Bacteroides spp. [5]: increased | phylotype group related to Parasutterella excrementihominis ([6]; in the absence of MEKi): notable increase | taxa increased in relative abundance ([6]; in the absence of MEKi): primarily increased the relative abundance of taxa mapped in or near Clostridium cluster XIVa | Akkermansia muciniphila ([6]; inulin+MEKi treated mice compared to inulin alone): robustly enriched | levels of NOD2, IL-6 and CXCL2 mRNA in intestinal epithelial cells [7]: increased | MHC class I and MHC class II on tumor-resident DCs [8]: higher levels | dendritic cell subsets including pDCs and CD8a+ conventional DCs in tumors [8]: increased | effector (CD44hi) CD4+ and CD8+ T cells, and CD45+ cells in tumors ([8]; compared to control mice): enrichment | CD4+ or CD8+ T cells, CD45+ cells, cytokine production, DCs and DC subsets in tumors [9]: No differences | anti-tumor immune responses, MHC class II and I expression on DCs [9]: enhanced | expression of multiple pro-inflammatory mediators in CD8+ T cells [10]: increased expression
